biological target: T1, rat spleen 20S immunoproteasome (Rattus norvegicus, UniProt P28064+P28077); assay: Rat 20S (PA28 activation) β1i and β5i Proteasome Assays (result stated for one or both); type: biochemical; details: human PA28 activator, Ac-PAL-AMC (β1i) or Ac-ANW-AMC (β5i) substrate, not stated which of the two assays
T1 construct: rat spleen 20S immunoproteasome (Boston Biochem, 0.25 nM final); purchased Boston Biochem; host or cells: rat spleen (tissue-derived 20S immunoproteasome)
Description: Rat 20S (PA28 activation) β1i Proteasome Assay
(§1) To 1 µL of test compound dissolved in DMSO in a 384-well black microtiter plate is added 25 µL of assay buffer at 37 °C containing human PA28 activator (Boston Biochem, 12 nM final) with Ac-PAL-AMC (•1i selective substrate) (40 µM final), followed by 25 µL of assay buffer at 37 °C containing rat spleen 20S immunoproteasome (Boston Biochem, 0.25 nM final). Assay buffer is composed of 20 mM HEPES, 0.5 mM EDTA and 0.01% BSA, pH7.4. The reaction is followed on a BMG Galaxy plate reader (37 °C, excitation 380 nm, emission 460 nm, gain 20). Percent inhibition is calculated relative to 0% inhibition (DMSO) and 100% inhibition (10 µM bortezomib) controls.
Rat 20S (PA28 activation) β5i Proteasome Assay
as §1, with “Ac-ANW-AMC •5i” for “Ac-PAL-AMC (•1i”, “substrate (30” for “substrate) (40”, “final)” for “final),”, “(37°C,” for “(37 °C,”

IC50 [µM] | SMILES
≤ 10 | Cc1ccc(C[C@H](NC(=O)C2(NC(=O)c3cnccn3)CC2)B(O)O)cc1 [Compound 19, {(1R)-2-(4-methylphenyl)-1-[({1-[(pyrazin-2-ylcarbonyl)amino]cyclopropyl}-carbonyl)amino]ethyl}boronic acid]
≤ 1 | CC(C)C[C@H](NC(=O)[C@]1(NC(=O)c2cnccn2)C[C@H]1c1ccccc1)B(O)O [Compound 3, {(1R)-3-methyl-1-[(((1S,2S)-2-phenyl-1-[(pyrazin-2-ylcarbonyl)amino]-cyclopropyl}carbonyl)amino]butyl)boronic acid]
≤ 10 | Cc1cccc(C[C@H](NC(=O)C2(NC(=O)c3ccc(Cl)cc3)CC2)B(O)O)c1 [Compound 2, [(1R)-1-[((1-[(4-chlorobenzoyl)amino]cyclopropyl)carbonyl)amino]-2-(3-methylphenyl)ethyl]boronic acid]

Second part, the molecule before the results:

SMILES | IC50 [µM]
CC(C)C[C@H](NC(=O)C(C)(C)NC(=O)c1cnc2ccccc2n1)B(O)O [Compound 21, [(1R)-3-methyl-1-({2-methyl-2-[(quinoxalin-2-ylcarbonyl)amino]propanoyl}-amino)butyl]boronic acid] | ≤ 1
CC(C)C[C@H](NC(=O)C1(NC(=O)c2ccccc2C(F)(F)F)CC1)B(O)O [Compound 30, ((1R)-3-methyl-1-{[(1-{[2-(trifluoromethyl)benzoyl]amino}cyclopropyl)-carbonyl]amino)butyl)boronic acid] | ≤ 1
CC(C)C[C@H](NC(=O)C1(NC(=O)Cc2ccccc2)CC1)B(O)O [Compound 22, {(1R)-3-methyl-1-[({1-[(phenylacetyl)amino]cyclopropyl}carbonyl)amino]-butyl}boronic acid] | ≤ 1
CC(C)C[C@H](NC(=O)C(C)(C)NC(=O)OCc1ccccc1)B(O)O [Compound 32, ((1R)-1-[(2-([(benzyloxy)carbonyl]amino)-2-methylpropanoyl)amino]-3-methylbutyl)boronic acid] | ≤ 1
CC(C)C[C@H](NC(=O)C(C)(C)NC(=O)c1cnccn1)B(O)O [Compound 28, [(1R)-3-methyl-1-({2-methyl-2-[(pyrazin-2-ylcarbonyl)amino]propanoyl}-amino)butyl]boronic acid] | ≤ 1
CC(C)C[C@H](NC(=O)C(C)(C)NC(=O)c1ccc(Cl)cc1)B(O)O [Compound 25, [(1R)-1-({2-[(4-chlorobenzoyl)amino]-2-methylpropanoyl]amino)-3-methylbutyl]boronic acid] | ≤ 1
CC(C)C[C@H](NC(=O)C1(NC(=O)OCc2ccccc2)CCC1)B(O)O [Compound 18, ((1R)-1-{[(1-{[(benzyloxy)carbonyl]amino}cyclobutyl)carbonyl]amino}-3-methylbutyl)boronic acid] | ≤ 1

Reference: patent EP2212334B1, “PROTEASOME INHIBITORS” (Millennium Pharmaceuticals, Inc., priority 2007, dated 2009)
